Patent US20110123483A1, “HMGB1 FOR CANCER TREATMENT” (DEUTSCHES KREBSFORSCHUNGSZENTRUM, priority 2009, published 2011)
“Also recorded” adds a separate entry of the source.

Legend:
[1] = test system: U251 MG cells; experiment: ROS measurement by DCF fluorescence and FACS analysis; format: cell-based, human; conditions: 40 nM, 24 h (FIG. 3A)
Method: For measurement of reactive oxygen species (ROS) and mitochondrial membrane potential (MMP) 1.5×10^6 U251 MG cells were seeded in 6 cm plates, treated with 40 nM rhHMGB1 for 24 h and incubated with the fluorescent DiOC6 (3,3′-dihexyloxacarbocyanine iodide, 40 nmol/ll, Sigma Chemical Co., St. Louis, Mo.) or with the fluorescent H2DCF-DA (dichlorodihydrofluorescein diacetate, 10 μM, Invitrogen) for 1 h at 37° C., respectively. The cells were trypsinized and centrifuged at 2,000 rpm for 5 min at 4° C. The supernatant was discarded and the pellet was washed 2× with sterile Dulbecco's PBS containing 0.1% fetal calf serum on ice and again centrifuged at 2,000 rpm for 5 min at 4° C. The pellet was resuspended in 500 μl sterile Dulbecco's PBS on ice. Oxidation of H2DCF to DCF by ROS and DiOC6 accumulation in mitochondria were measured immediately at FL-1 by flow cytometry using a FACScalibur (Beckton Dickinson, Heidelberg, Germany). Cell cycle was determined by measurement of priopidiumiodide (PI)-uptake of the cells according to standard procedures. Briefly, the cells were harvested and washed twice in sterile Dulbecco's PBS on ice, spun down at 2,000 rpm for 5 min at 4° C. and fixed with 70% ethanol for 30 min at 4° C. Contaminating RNA was eliminated by treatment with 100 μg/ml of RNase A, then 50 μg/ml PI was added and DNA content was measured immediately at FI-2. […]

[2] = test system: NCH421 K glioblastoma stem-cell-like cells; experiment: Cell morphology / spheroid cell aggregates; format: cell-based; conditions: FIG. 12B
[3] = test system: mitochondrial DNA; experiment: Dot blot analysis of mitochondrial DNA; format: cell-based, human; conditions: 24 h (FIG. 11A)
Method: Subcellular fractionation was performed as described below. The DNA of the resulting mitochondrial suspension was purified by a modified method described in Almeida et al. (Almeida et al., 2006). Briefly, contaminating nuclear DNA was precipitated by lysis of the mitochondria in a buffer of 50 mM glucose, 1.5 mM EDTA, 25 mM Tris-HCl, pH 7.4 with 20% SDS and 3 M K-acetate. After centrifugation (10 min, 4° C., 10.000×g) the supernatant was digested with 20 mg/ml proteinase K for 1 h at 37° C. and mtDNA was extracted twice with phenol-chloroform and one additional time with chloroform, followed by precipitation of mtDNA from the aqueous phase by adding two volumes of isopropanol. The pellet was washed with 80% ethanol at −20° C. After drying the mtDNA was solved in TE-buffer (10 mM Tris-HCl, pH 7.4, 1 mM EDTA, pH 8.0). After treatment of the samples with 100 μg/ml ribonuclease A (RNAse A) for 1 h at 37° C., the phenol-chloroform extraction steps were repeated and mtDNA was precipitated by adding 2 volumes of 100% ethanol and 1/10 volume 5 M NaCl at −20° C. overnight. After a centrifugation step for 20 min at 4° C. with 13,000 rpm and washing the pellet 2× with 80% ethanol, followed by drying, the pellet was solved in ddH2O. The purified DNA was digested overnight with BamHI and loaded on a 0.5% agarose gel. […] Labeling efficiency was determined as described in the kit. […]

[4] = test system: pseudo rho zero cells; experiment: Survival of pseudo rho zero cells by crystal violet analysis; format: cell-based, human; conditions: cells devoid of intact mitochondrial DNA
Method: U251 glioblastoma cells and non-immortalized human astrocytic cells (ScienCell, USA) were maintained in DMEM (Life Technologies) containing 10% FCS, 4.5 g/L glucose, glutamine, 110 mg/L sodium pyruvate, and 1% penicillin-streptomycin (Life Technologies) and in astrocyte medium (ScienCell) containing 2% FBS (fetal bovine serum) and 1% penicillin-streptomycin at 37° C. and 5% CO2. For the generation of pseudo rho zero cells (0.0), U251 MG cells were treated with low dose (250 ng/ml) ethidiumbromide for 3 months. The cells were supplemented with DMEM (10% FCS, 1% P/S) containing 50 μg/ml L-pyruvate and 5 mg/ml uridine (King and Attardi, 1989).
20,000 U251MG glioblastoma cells or human astrocytic cells (ScienCell) were plated into 96-well plates. After 24 h cells were treated with rhHMGB1 (Sigma Aldrich) or rat recombinant HMGB1 (generously provided by Angelika Bierhaus, Heidelberg, Germany), and TRAIL (for 24 h) or Temozolomide (for 72 h) alone or in combination, respectively. Cell survival was measured by crystal violet staining as described previously (Gdynia et al., 2007). Cell proliferation was assessed by seeding 50,000 U251 MG cells in 6 cm culture plates and treatment with rhHMGB1, followed by counting the cells in a Neubauer chamber at day 0, 2, 4 and 5.

rhHMGB1: recombinant human High Mobility Group B1 protein (Sigma Aldrich)
generation of radical oxygen species (ROS) [1]: strong generation | anti-proliferative effect, spheroid cell aggregates [2]: clearly smaller and fewer spheroid cell aggregates | mitochondrial DNA content [3]: substantial and rapid depletion of mtDNA | rhHMGB1-induced cell death in pseudo rho zero cells [4]: almost completely resistant; also recorded: highly protected
